The values below are quoted from earlier work in patent publication US12582661B2, “Synthesis and application of class of respiratory syncytial virus inhibitors” (SHANGHAI ARK BIOPHARMACEUTICAL CO., LTD., priority 2020, dated 2026).

The data set deals with RSV. To be noted: oral; cited from earlier work.

Consider `Cc1cn2nc([C@@H]3CCCCN3C(=O)c3cc(Cl)ccc3NS(C)(=O)=O)cc2nc1N1CC[C@H](N)C1` [GS-5806], for which the “viral load, mucus quantity and symptom scores” value was “decrease viral load, mucus quantity and symptom scores”.
